Laboratory results taken from patent US9242993B2, “Morpholino substituted bicyclic pyrimidine urea or carbamate derivatives as mTOR inhibitors” (CELLZOME LIMITED, priority 2011, dated 2016).

How the values were obtained:
[1] = target: DNA-dependent protein kinase (DNA-PK) (Homo sapiens, UniProt P78527); test: biochemical
[2] = tested on: S6RP serine-240/244 phosphorylation; test: In vitro phospho-S6 cellular assay; type: cell-based; conditions: Homo sapiens; HEK293T/17 cells, 2 hours; read-out: pS6 inhibition value (IC50), activity level
Source text: Activation of mTOR signaling results in phosphorylation of several downstream targets. In cells, mTOR exists in two different protein complexes. The mTOR Complex-1 (mTORC1) phosphorylates and activates S6 Kinase 1 (S6K1) and S6 Kinase 2 (S6K2) (also known as p70S6K) which then phosphorylate S6 Ribosomal Protein (S6RP) (also known as RPS6)3. S6RP is phosphorylated on serine 235, serine 236, serine 240 and serine 244 by both pS6K1 and pS6K2. The mTOR Complex-2 (mTORC2) phosphorylates AKT on serine 473 which activates the AKT signaling pathway.
The assay measures a test compound's inhibition of S6RP serine-240/244 phosphorylation and inhibition of Akt serine-473 phosphorylation in human embryonic kidney derived HEK293T/17 cells (ATCC CRL-11268).
The HEK293T/17 cell line is maintained in DMEM media (Invitrogen catalogue number 41965-039) supplemented with 10% FCS at 37° C. in a 5% CO2 humidified incubator.
Cells are seeded in 96-well plates at 40,000 cells/well (pS6RP S240/244 assay) or 80,000 cells/well (pAkt S473 assay) in 90 μl growth media (DMEM, 2% FCS). Plates are incubated for 1 hour in a humidified incubator to allow the cells to adhere. Cells are treated with 8 concentrations of test compounds or DMSO alone for controls (final DMSO concentration 0.1%) and incubated at 37° C. for 2 hours. Then 20 μl of 5× concentrated lysis buffer (750 mM NaCl, 100 mM Tris pH7.4, 5 mM ADTA, 5 mM EGTA, 5% Triton X-100) is added, plates are sealed and incubated for 15 minutes at 4° C. with gentle shaking. After cell lysis, 25 μl cell lysate is transferred to a MesoScale plate coated with an antibody to pS6RP Ser240/244 (MesoScale Discovery K150DGD-3) or an antibody to pAkt Ser 473 (MesoScale Discovery K151DGD-3). Plates have been blocked before by incubation with 150 μl MesoScale Discovery Blocking Solution-A for 1 hour at room temperature followed by washing with 150 μl 1× Tris wash buffer per well. After the transfer of the cell lysate to the MSD plate, the pS6RP (or pAkt) protein is captured on the coated antibody by incubation at room temperature for 1 hour with gentle shaking. After the capture step the plate is washed three times with 150 μl of 1× Tris wash buffer per well. Then 25 μl detection antibody conjugated with a Sulfo-Tag is added and incubated for 1 hour at room temperature with gentle shaking. Subsequently the antibody solution is removed and the plate is washed 3 times with 150 μl 1× Tris wash buffer per well and 150 μl Read buffer is added. The plates are analysed on a MSD 2400 Plate Reader (MesoScale Discovery). Data analysis is performed using nonlinear regression for a sigmoidal dose-response with a variable slope.

mTOR = mTOR (Homo sapiens, UniProt P42345); test: biochemical

Chain of DNA-dependent protein kinase (DNA-PK) (P78527 whole entry): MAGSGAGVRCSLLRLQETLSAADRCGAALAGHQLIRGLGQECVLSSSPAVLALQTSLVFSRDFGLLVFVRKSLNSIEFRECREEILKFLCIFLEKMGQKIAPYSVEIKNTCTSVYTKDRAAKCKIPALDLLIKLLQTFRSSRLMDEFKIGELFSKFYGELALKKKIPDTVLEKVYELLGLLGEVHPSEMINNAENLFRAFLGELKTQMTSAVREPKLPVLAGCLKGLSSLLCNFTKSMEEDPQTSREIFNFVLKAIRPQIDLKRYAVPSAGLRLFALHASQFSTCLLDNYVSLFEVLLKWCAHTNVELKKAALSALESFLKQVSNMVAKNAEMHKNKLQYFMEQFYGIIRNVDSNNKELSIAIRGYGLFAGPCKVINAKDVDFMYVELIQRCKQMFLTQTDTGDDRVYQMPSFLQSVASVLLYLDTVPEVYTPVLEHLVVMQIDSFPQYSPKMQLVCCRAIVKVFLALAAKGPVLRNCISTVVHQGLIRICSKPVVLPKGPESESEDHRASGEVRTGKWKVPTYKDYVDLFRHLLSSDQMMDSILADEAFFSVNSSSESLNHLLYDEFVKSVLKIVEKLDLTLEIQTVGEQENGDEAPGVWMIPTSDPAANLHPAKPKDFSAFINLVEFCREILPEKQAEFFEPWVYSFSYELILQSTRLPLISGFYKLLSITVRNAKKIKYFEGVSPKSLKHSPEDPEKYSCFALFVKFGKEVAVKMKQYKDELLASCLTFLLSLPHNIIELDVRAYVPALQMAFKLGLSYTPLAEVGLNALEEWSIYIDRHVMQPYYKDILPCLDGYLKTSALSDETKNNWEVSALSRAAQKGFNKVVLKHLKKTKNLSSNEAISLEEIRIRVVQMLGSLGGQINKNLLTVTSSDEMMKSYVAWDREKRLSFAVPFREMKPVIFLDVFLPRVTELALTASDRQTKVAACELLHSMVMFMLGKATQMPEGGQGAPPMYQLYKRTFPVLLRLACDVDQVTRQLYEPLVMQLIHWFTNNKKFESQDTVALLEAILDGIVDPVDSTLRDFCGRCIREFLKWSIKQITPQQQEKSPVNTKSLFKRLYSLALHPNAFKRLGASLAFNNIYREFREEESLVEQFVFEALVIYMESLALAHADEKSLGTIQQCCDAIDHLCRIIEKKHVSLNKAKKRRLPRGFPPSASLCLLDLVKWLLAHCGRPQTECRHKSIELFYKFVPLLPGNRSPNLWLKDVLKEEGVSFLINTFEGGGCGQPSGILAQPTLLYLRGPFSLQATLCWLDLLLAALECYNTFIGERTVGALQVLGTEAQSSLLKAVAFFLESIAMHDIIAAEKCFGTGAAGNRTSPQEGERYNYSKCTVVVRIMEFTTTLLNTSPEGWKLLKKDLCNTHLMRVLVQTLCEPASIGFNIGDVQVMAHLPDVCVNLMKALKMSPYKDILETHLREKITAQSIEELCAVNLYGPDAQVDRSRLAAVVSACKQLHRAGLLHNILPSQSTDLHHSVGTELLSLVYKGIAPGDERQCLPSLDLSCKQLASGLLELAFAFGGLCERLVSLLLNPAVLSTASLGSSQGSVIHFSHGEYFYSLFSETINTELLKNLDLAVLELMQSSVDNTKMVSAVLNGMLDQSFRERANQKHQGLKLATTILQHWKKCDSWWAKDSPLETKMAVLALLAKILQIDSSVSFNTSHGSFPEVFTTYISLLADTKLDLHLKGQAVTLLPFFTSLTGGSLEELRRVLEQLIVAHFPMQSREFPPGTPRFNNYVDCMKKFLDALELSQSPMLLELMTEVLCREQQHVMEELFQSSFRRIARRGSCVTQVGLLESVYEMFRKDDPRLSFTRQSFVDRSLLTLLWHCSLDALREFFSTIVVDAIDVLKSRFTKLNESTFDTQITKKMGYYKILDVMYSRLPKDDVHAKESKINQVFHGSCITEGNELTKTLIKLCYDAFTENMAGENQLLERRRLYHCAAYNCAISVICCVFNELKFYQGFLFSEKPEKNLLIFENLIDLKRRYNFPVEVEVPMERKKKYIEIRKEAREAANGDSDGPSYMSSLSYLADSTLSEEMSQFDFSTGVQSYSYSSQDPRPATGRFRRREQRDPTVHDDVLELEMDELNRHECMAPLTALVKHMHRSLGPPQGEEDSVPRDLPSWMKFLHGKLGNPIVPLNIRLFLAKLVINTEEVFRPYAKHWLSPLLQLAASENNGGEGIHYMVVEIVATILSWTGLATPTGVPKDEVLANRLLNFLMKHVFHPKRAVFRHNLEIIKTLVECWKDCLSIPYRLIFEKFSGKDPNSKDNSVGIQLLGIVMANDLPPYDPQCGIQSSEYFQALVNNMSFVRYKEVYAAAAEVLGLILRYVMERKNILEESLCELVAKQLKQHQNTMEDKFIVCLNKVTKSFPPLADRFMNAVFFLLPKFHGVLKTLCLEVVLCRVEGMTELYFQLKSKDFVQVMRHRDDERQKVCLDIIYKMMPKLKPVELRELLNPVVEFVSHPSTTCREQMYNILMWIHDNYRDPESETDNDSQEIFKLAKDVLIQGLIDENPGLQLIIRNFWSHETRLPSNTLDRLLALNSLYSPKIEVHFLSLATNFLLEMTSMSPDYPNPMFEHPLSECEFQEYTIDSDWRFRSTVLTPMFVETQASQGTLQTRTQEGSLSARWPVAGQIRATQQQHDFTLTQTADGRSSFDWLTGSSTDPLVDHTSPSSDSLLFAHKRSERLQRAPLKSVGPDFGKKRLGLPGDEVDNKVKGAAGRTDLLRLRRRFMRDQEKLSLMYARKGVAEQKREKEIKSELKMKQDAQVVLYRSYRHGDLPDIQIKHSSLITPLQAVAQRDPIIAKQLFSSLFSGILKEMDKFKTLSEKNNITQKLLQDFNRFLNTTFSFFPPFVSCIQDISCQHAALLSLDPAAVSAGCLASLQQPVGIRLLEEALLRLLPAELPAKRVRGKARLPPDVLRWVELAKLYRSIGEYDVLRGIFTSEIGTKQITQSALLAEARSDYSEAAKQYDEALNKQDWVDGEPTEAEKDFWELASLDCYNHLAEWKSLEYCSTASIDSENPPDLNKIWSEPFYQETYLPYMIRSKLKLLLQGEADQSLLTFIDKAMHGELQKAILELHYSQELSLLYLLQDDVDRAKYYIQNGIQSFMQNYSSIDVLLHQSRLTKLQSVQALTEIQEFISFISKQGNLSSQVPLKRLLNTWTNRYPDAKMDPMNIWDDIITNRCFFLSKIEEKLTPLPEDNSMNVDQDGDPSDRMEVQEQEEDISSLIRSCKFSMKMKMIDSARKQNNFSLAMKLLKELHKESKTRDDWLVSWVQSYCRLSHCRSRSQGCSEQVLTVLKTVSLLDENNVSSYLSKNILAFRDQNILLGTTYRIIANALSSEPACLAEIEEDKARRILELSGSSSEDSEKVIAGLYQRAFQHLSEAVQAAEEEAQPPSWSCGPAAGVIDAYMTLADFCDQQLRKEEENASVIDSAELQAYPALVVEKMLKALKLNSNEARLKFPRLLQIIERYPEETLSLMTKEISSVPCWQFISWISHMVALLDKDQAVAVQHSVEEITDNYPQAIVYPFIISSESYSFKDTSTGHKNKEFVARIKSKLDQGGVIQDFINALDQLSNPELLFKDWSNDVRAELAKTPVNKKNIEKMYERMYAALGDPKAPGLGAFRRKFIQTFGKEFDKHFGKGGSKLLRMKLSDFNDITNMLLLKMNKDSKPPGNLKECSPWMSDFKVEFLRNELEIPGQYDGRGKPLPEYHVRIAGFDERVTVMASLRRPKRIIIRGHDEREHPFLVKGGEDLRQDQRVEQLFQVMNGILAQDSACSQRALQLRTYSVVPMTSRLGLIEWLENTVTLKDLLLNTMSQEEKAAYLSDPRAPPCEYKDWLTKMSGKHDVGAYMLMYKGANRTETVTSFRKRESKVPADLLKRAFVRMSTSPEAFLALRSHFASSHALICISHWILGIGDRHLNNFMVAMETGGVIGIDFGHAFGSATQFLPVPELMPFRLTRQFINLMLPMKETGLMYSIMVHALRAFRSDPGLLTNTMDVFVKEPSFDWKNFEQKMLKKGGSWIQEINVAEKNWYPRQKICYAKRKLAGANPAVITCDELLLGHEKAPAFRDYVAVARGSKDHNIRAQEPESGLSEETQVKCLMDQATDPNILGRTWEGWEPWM

## C[C@H]1COCCN1c1nc(-c2ccc(NC(=O)NC3CC3)cc2)nc2c1CS(=O)(=O)CC2 [Example 4, (S)-1-cyclopropyl-3-(4-(4-(3-methylmorpholino)-6,6-dioxido-7,8-dihydro-5H-thiopyrano[4,3-d]pyrimidin-2-yl)phenyl)urea]
[1]
  IC50: > 10000 nM
[2]
  IC50: 100 to 1000 nM
mTOR
  IC50: < 100 nM

## C[C@H]1COCCN1c1nc(-c2ccc(NC(=O)NCCO)cc2)nc2c1CS(=O)(=O)C2 [Example 13, (S)-1-(2-hydroxyethyl)-3-(4-(4-(3-methylmorpholino)-6,6-dioxido-5,7-dihydrothieno[3,4-d]pyrimidin-2-yl)phenyl)urea]
[1]
  IC50: 1000 to 10000 nM
[2]
  IC50: 1000 to 10000 nM
mTOR
  IC50: < 100 nM

## O=C(NCC(F)F)Nc1ccc(-c2nc3c(c(N4CC5CCC(C4)O5)n2)CS(=O)(=O)C3)cc1 [Example 24, 1-(4-(4-(8-oxa-3-azabicyclo[3.2.1]octan-3-yl)-6,6-dioxido-5,7-dihydrothieno[3,4-d]pyrimidin-2-yl)phenyl)-3-(2,2-difluoroethyl)urea]
[2]
  IC50: < 100 nM
mTOR
  IC50: 100 to 1000 nM

## C[C@@H]1COCCN1c1nc(-c2ccc(NC(=O)NC3CC3)cc2)nc2c1CS(=O)(=O)C2 [Example 17, (R)-1-cyclopropyl-3-(4-(4-(3-methylmorpholino)-6,6-dioxido-5,7-dihydrothieno[3,4-d]pyrimidin-2-yl)phenyl)urea]
[2]
  IC50: < 100 nM
mTOR
  IC50: 100 to 1000 nM

## C[C@H]1COCCN1c1nc(-c2ccc(NC(=O)Nc3cccnc3)cc2)nc2c1CS(=O)(=O)C2 [Example 36, (S)-1-(4-(4-(3-methylmorpholino)-6,6-dioxido-5,7-dihydrothieno[3,4-d]pyrimidin-2-yl)phenyl)-3-(pyridin-3-yl)urea]
[1]
  IC50: > 10000 nM
mTOR
  IC50: < 100 nM

## C[C@H]1COCCN1c1nc(-c2ccc(NC(=O)NCCCF)cc2)nc2c1CS(=O)(=O)C2 [Example 28, (S)-1-(3-fluoropropyl)-3-(4-(4-(3-methylmorpholino)-6,6-dioxido-5,7-dihydrothieno[3,4-d]pyrimidin-2-yl)phenyl)urea]
[1]
  IC50: > 10000 nM
[2]
  IC50: 100 to 1000 nM
mTOR
  IC50: 100 to 1000 nM

## CCNC(=O)Nc1ccc(-c2nc3c(c(N4CC5CCC(C4)O5)n2)CS(=O)(=O)C3)cc1 [Example 15, 1-(4-(4-(8-oxa-3-azabicyclo[3.2.1]octan-3-yl)-6,6-dioxido-5,7-dihydrothieno[3,4-d]pyrimidin-2-yl)phenyl)-3-ethylurea]
[1]
  IC50: > 10000 nM
[2]
  IC50: < 100 nM
mTOR
  IC50: < 100 nM

## O=C(Nc1ccc(-c2nc3c(c(N4CC5CCC(C4)O5)n2)CS(=O)(=O)C3)cc1)NC1CC1 [Example 20, 1-(4-(4-(8-oxa-3-azabicyclo[3.2.1]octan-3-yl)-6,6-dioxido-5,7-dihydrothieno[3,4-d]pyrimidin-2-yl)phenyl)-3-cyclopropylurea]
[2]
  IC50: 100 to 1000 nM
mTOR
  IC50: < 100 nM

## C[C@H]1COCCN1c1nc(-c2ccc(NC(=O)NC3CC3)cc2)nc2c1SCCC2 [Example 8, (S)-1-cyclopropyl-3-(4-(4-(3-methylmorpholino)-7,8-dihydro-6H-thiopyrano[3,2-d]pyrimidin-2-yl)phenyl)urea]
[1]
  IC50: > 10000 nM
[2]
  IC50: < 100 nM
mTOR
  IC50: < 100 nM

## CC1c2c(nc(-c3ccc(NC(=O)NC4CC4)cc3)nc2N2CC3CCC(C2)O3)CS1(=O)=O (stereo not drawn) [Example 34, 1-(4-(4-(8-oxa-3-azabicyclo[3.2.1]octan-3-yl)-5-methyl-6,6-dioxido-5,7-dihydrothieno[3,4-d]pyrimidin-2-yl)phenyl)-3-cyclopropylurea]
[2]
  IC50: < 100 nM
mTOR
  IC50: < 100 nM

## CCNC(=O)Nc1ccc(-c2nc3c(c(N4CCOC[C@@H]4C)n2)CS(=O)(=O)C3)cc1 [Example 11, (S)-1-ethyl-3-(4-(4-(3-methylmorpholino)-6,6-dioxido-5,7-dihydrothieno[3,4-d]pyrimidin-2-yl)phenyl)urea]
[1]
  IC50: > 10000 nM
[2]
  IC50: < 100 nM

## CC1c2c(nc(-c3ccc(NC(=O)NC4CC4)cc3)nc2N2C3CCC2COC3)CS1(=O)=O (stereo not drawn) [Example 33, 1-(4-(4-(3-oxa-8-azabicyclo[3.2.1]octan-8-yl)-5-methyl-6,6-dioxido-5,7-dihydrothieno[3,4-d]pyrimidin-2-yl)phenyl)-3-cyclopropylurea]
[2]
  IC50: < 100 nM
mTOR
  IC50: < 100 nM

## CC1c2c(N3CCOCC3)nc(-c3ccc(NC(=O)NCCF)cc3)nc2C(C)(C)S1(=O)=O (stereo not drawn) [Example 81, 1-(2-fluoroethyl)-3-(4-(5,7,7-trimethyl-4-morpholino-6,6-dioxido-5,7-dihydrothieno[3,4-d]pyrimidin-2-yl)phenyl)urea]
mTOR
  IC50: < 100 nM

## C[C@@H]1CN(c2nc(-c3ccc(NC(=O)NC4CC4)cc3)nc3c2CS(=O)(=O)C3)C[C@H](C)O1 [Example 19, 1-cyclopropyl-3-(4-(4-((2S,6R)-2,6-dimethylmorpholino)-6,6-dioxido-5,7-dihydrothieno[3,4-d]pyrimidin-2-yl)phenyl)urea]
mTOR
  IC50: 1000 to 10000 nM

## CC(C)NC(=O)Nc1ccc(-c2nc3c(c(N4CCOC[C@@H]4C)n2)CS(=O)(=O)C3)cc1 [Example 25, (S)-1-isopropyl-3-(4-(4-(3-methylmorpholino)-6,6-dioxido-5,7-dihydrothieno[3,4-d]pyrimidin-2-yl)phenyl)urea]
[2]
  IC50: 100 to 1000 nM
mTOR
  IC50: 100 to 1000 nM

## C[C@H]1COCCN1c1nc(-c2ccc(NC(=O)NCC(F)F)cc2)nc2c1CS(=O)(=O)C2 [Example 23, (S)-1-(2,2-difluoroethyl)-3-(4-(4-(3-methylmorpholino)-6,6-dioxido-5,7-dihydrothieno[3,4-d]pyrimidin-2-yl)phenyl)urea]
[2]
  IC50: 100 to 1000 nM
mTOR
  IC50: < 100 nM

## CC1c2c(nc(-c3ccc(NC(=O)NC4CC4)cc3)nc2N2CCOC[C@@H]2C)CS1(=O)=O (mixture of isomers) [Example 6, 1-cyclopropyl-3-(4-(5-methyl-4-((S)-3-methylmorpholino)-6,6-dioxido-5,7-dihydrothieno[3,4-d]pyrimidin-2-yl)phenyl)urea]
[2]
  IC50: < 100 nM
mTOR
  IC50: < 100 nM

## C[C@H]1COCCN1c1nc(-c2ccc(NC(=O)NC3CC3)cc2)nc2c1S(=O)(=O)C(C)(C)C2 [Example 37, (S)-1-cyclopropyl-3-(4-(6,6-dimethyl-4-(3-methylmorpholino)-5,5-dioxido-6,7-dihydrothieno[3,2-d]pyrimidin-2-yl)phenyl)urea]
[1]
  IC50: > 10000 nM
mTOR
  IC50: 100 to 1000 nM

## C[C@@H]1c2c(N3CCOC[C@@H]3C)nc(-c3ccc(NC(=O)NC4CC4)cc3)nc2C(C)(C)S1(=O)=O [Example 82, 1-cyclopropyl-3-(4-((R)-5,7,7-trimethyl-4-((S)-3-methylmorpholino)-6,6-dioxido-5,7-dihydrothieno[3,4-d]pyrimidin-2-yl)phenyl)urea]
mTOR
  IC50: < 100 nM

## CC1c2nc(-c3ccc(NC(=O)NC4CC4)cc3)nc(N3CCOC[C@@H]3C)c2CS1(=O)=O (stereo partly drawn) [Example 7, 1-cyclopropyl-3-(4-(7-methyl-4-((S)-3-methylmorpholino)-6,6-dioxido-5,7-dihydrothieno[3,4-d]pyrimidin-2-yl)phenyl)urea]
[2]
  IC50: < 100 nM
mTOR
  IC50: < 100 nM

## C[C@H]1COCCN1c1nc(-c2ccc(NC(=O)NC3CC3)cc2)nc2c1CS(=O)(=O)C2(C)C [Example 30, (S)-1-cyclopropyl-3-(4-(7,7-dimethyl-4-(3-methylmorpholino)-6,6-dioxido-5,7-dihydrothieno[3,4-d]pyrimidin-2-yl)phenyl)urea]
[2]
  IC50: < 100 nM
mTOR
  IC50: < 100 nM

## C[C@H]1COCCN1c1nc(-c2ccc(NC(=O)NC3CC3)cc2)nc2c1CSCC2 [Example 3, (S)-1-cyclopropyl-3-(4-(4-(3-methylmorpholino)-7,8-dihydro-5H-thiopyrano[4,3-d]pyrimidin-2-yl)phenyl)urea]
[2]
  IC50: < 100 nM
mTOR
  IC50: < 100 nM

## CNC(=O)Nc1ccc(-c2nc3c(c(N4CC5CCC(C4)O5)n2)CS(=O)(=O)C3)cc1 [Example 21, 1-(4-(4-(8-oxa-3-azabicyclo[3.2.1]octan-3-yl)-6,6-dioxido-5,7-dihydrothieno[3,4-d]pyrimidin-2-yl)phenyl)-3-methylurea]
[2]
  IC50: 100 to 1000 nM
mTOR
  IC50: < 100 nM
